In patent US6750348B1, “Chemokine receptor binding heterocyclic compounds” (AnorMED, Inc., priority 1999, dated 2004):
pEC50: −log10 of the molar value.

System: SDF-1α induced Ca flux in SUP-T1 cells
Assay: Inhibition of SDF-1α induced Ca flux in SUP-T1 cells (FLIPR)
Format: cell-based
Details: Homo sapiens, at 20 μM, read-out: inhibited SDF-1α induced Ca flux
Procedure: Loading dye: Fluo-3, AM (Molecular Probes F-1241) is dissolved in anhydrous DMSO and stored frozen in aliquots. To increase the solubility of the dye in the loading medium, 10% (w/v) pluronic acid (Molecular Probes F-127) is added to the Fluo-3 stock solution immediately before use.
HBSS+20 mM Hepes buffer+0.2% BSA, pH 7.4. HBSS 10× [(w/o phenol red and sodium bicarbonate (Gibco 14 065-049)]; Hepes buffer 1M (Gibco 15 630-056), BSA (Sigma A3675). The flux buffer is vacuum-filtered and stored refrigerated for a maximum of 5 days. Before use in the experiment, the buffer is warmed at 37° C. in a waterbath.
The test compounds were diluted in flux buffer and added to 4 wells of a black microplate (4 parallel measurements per compound).
The chemokines are diluted in flux buffer to concentrations that are 4-fold higher than the desired concentrations required for stimulation of the cells (i.e. 2.5 nM for SDF-1α and 0.6 nM for RANTES). The chemokines were added to untreated 96-well Sero well compound plates (International Medical, Sterilin code 611F96). In the negative control well's (baseline monitoring), flux buffer is added instead of chemokine. As a positive control to check for dye loading efficiency, 20 μM digitonin (final concentration) was also included. The agonist plate was incubated in the FLIPR (37° C.) for 15-30 min.
SUP-T1 cells were centrifuged at room temperature (RT) and re-suspended in loading medium (RPMI-1640 containing 2% FBS and 4 μM Fluo-3, AM). The cells were incubate at room temperature for 45 min. then washed twice in flux buffer then incubated in flux buffer at room temperature for 10 min. The cells were centrifuged and re-suspended in flux buffer at a density of 3×10^6 cells per mL. […] The microplate is then gently centrifuged at room temperature. Homogeneous spreading of the cells on the bottom of the microplate wells was then confirmed with a microscope and the microplate was incubated in the FLIPR (37° C.) for 10 min. prior to testing.
The FLIPR settings (camera exposure time and laser power) are adjusted to obtain initial fluorescence values between 8,000 and 10,000 units. After monitoring a 20 second-baseline, the agonist (chemokine) (50 μL) is added by automatic pipettor with black pipette tips. Fluorescence is measured simultaneously in all wells of the microplate every 2 seconds (first 2 min) and thereafter every 6 seconds (additional 2 min). The average ca-flux measured in each set of 4 identical wells (one test compound) was calculated by the FLIPR software.
The compounds of the current invention were tested for inhibition of SDF-1α induced Ca flux in SUP-T1 cells using the method described above.

| Compound | inhibition at 20 µM [%] |
| --- | --- |
| Cc1onc(-c2ccccc2Cl)c1C(=O)N1CCC(N(Cc2cccc(CNCc3ccccn3)c2)Cc2ccccn2)CC1 [Example 98, N,N′-bis(2-pyridinylmethyl)-N-[1-[3-(2-chlorophenyl)-5-methyl-isoxazol-4-oyl]-4-piperidinyl]-1,3-benzenedimethanamine] | > 20 |
| O=C(NN1CCC(N(Cc2ccc(CNCc3ccccn3)cc2)Cc2ccccn2)CC1)c1cccnc1 [Example 131, N-[1-(3-pyridinecarboxamido)-4-piperidinyl]-N,N′-bis(2-pyridinylmethyl)-1,4-benzenedimethanamine] | > 20 |
| Cc1onc(-c2ccccc2Cl)c1C(=O)NN1CCC(N(Cc2ccc(CNCc3ccccn3)cc2)Cc2ccccn2)CC1 [Example 135, N-[1-[3-(2-chlorophenyl)-5-methyl-isoxazol-4-carboxamido]-4-piperidinyl]-N,N′-bis(2-pyridinylmethyl)-1,4-benzenedimethanamine] | > 20 |
| c1ccc(CN2CCC(N(Cc3ccc(CNCc4ccccn4)cc3)Cc3ccccn3)C2)cc1 (centres unmarked) [Example 145, N-[1-(benzyl)-3-pyrrolidinyl]-N,N′-bis(2-pyridinylmethyl)-1,4-benzenedimethanamine] | > 20 |
| CC(C)N1CCC(N(Cc2ccc(CNCc3ccccn3)cc2)Cc2ccccn2)CC1 [Example 147, N-[1-(iso-propyl)-4-piperidinyl]-N,N′-bis(2-pyridinylmethyl)-1,4-benzenedimethanamine] | > 20 |
| CCCCN1CCC(N(CCc2ccccn2)Cc2cccc(CNCc3ccccn3)c2)CC1 [Example 177, N-[1-butyl-4-piperidinyl]-N-[2-(2-pyridinyl)ethyl]-N′-(2-pyridinylmethyl)-1,3-benzenedimethanamine] | > 20 |
| O=C(c1ccccc1)N1CCC(N(CCc2ccccn2)Cc2cccc(CNCc3ccccn3)c2)CC1 [Example 178, N-[1-benzoyl-4-piperidinyl]-N-[2-(2-pyridinyl)ethyl]-N′-(2-pyridinylmethyl)-1,3-benzenedimethanamine] | > 20 |
| Cn1cc(CN(CCc2ccccn2)Cc2cccc(CNCc3ccccn3)c2)c2ccccc21 [Example 180, N-[(1-methyl)benzo[b]pyrrol-3-ylmethyl]-N-[2-(2-pyridinyl)ethyl]-N′-(2-pyridinylmethyl)-1,3-benzenedimethanamine] | > 20 |
| c1ccc(CN2CCC(N(CCc3ccccn3)Cc3ccc(CNCc4ccccn4)cc3)CC2)cc1 [Example 182, N-[1-(benzyl)-4-piperidinyl]-N-[2-(2-pyridinyl)ethyl]-N′-(2-pyridinylmethyl)-1,4-benzenedimethanamine] | > 20 |
| Cn1c(CN(CCc2ccccn2)Cc2ccc(CNCc3ccccn3)cc2)nc2ccccc21 [Example 183, N-[1-methylbenzimidazol-2-ylmethyl]-N-[2-(2-pyridinyl)ethyl]-N′-(2-pyridinylmethyl)-1,4-benzenedimethanamine] | > 20 |
| c1ccc(-c2[nH]c3ccccc3c2CN(CCc2ccccn2)Cc2ccc(CNCc3ccccn3)cc2)cc1 [Example 184, N-[(2-phenyl)benzo[b]pyrrol-3-ylmethyl]-N-[2-(2-pyridinyl)ethyl]-N′-(2-pyridinylmethyl)-1,4-benzenedimethanamine] | > 20 |

Same assay, conditions: Homo sapiens, at 20 μg/mL, read-out: inhibited SDF-1α induced Ca flux

| Compound | inhibition at 20 µg/mL [%] |
| --- | --- |
| c1ccc(CNCc2ccc(CNc3cccc4c3NCCC4)cc2)nc1 [Example 9, N-(2-pyridinylmethyl)-N′-(1,2,3,4-tetrahydro-8-quinolinyl)-1,4-benzenedimethanamine] | > 20 |
| c1ccc(CNCc2ccc(CN(Cc3ncc[nH]3)C3CCCc4cccnc43)cc2)nc1 (centres unmarked) [Example 15, N-(2-pyridinylmethyl)-N′-(1H-imidazol-2-ylmethyl)-N′-(5,6,7,8-tetrahydro-8-quinolinyl)-1,4-benzenedimethanamine] | > 20 |
| c1ccc(CNCc2ccc(CN(Cc3ccc[nH]3)C3CCCc4cccnc43)cc2)nc1 (centres unmarked) [Example 26, N-(2-pyridinylmethyl)-N′-[2-pyrrolylmethyl]-N′-(5,6,7,8-tetrahydro-8-quinolinyl)-1,4-benzenedimethanamine] | > 20 |
| NCCN(Cc1ccc(CNCc2ccccn2)cc1)C1CCCc2cccnc21 (centres unmarked) [Example 31, N-(2-pyridinylmethyl)-N′-(2-aminoethyl)-N′-(5,6,7,8-tetrahydro-8-quinolinyl)-1,4-benzenedimethanamine] | > 20 |
| c1ccc(CN(Cc2ccc(CNCc3ccccn3)cc2)C2CCCc3cccnc32)cc1 (centres unmarked) [Example 60, N-(2-pyridinylmethyl)-N′-(phenylmethyl)-N′-(5,6,7,8-tetrahydro-8-quinolinyl)-1,4-benzenedimethanamine] | > 20 |
| NCC(=O)N(Cc1ccc(CNCc2ccccn2)cc1)C1CCCc2cccnc21 (centres unmarked) [Example 72, N-[[4-[[(2-pyridinylmethyl)amino]methyl]phenyl]methyl]-N-(5,6,7,8-tetrahydro-8-quinolinyl)-glycinamide] | > 20 |
| O=C(c1cnccn1)N(Cc1ccc(CNCc2ccccn2)cc1)C1CCCc2cccnc21 (centres unmarked) [Example 75, N-[[4-[[(2-pyridinylmethyl)amino]methyl]phenyl]methyl]-N-(5,6,7,8-tetrahydro-8-quinolinyl)-pyrazinamide] | > 20 |
| O=C(c1ccccn1)N(Cc1ccc(CNCc2ccccn2)cc1)C1CCCc2cccnc21 (centres unmarked) [Example 79, N-[[4-[[(2-pyridinylmethyl)amino]methyl]phenyl]methyl]-N-(5,6,7,8-tetrahydro-8-quinolinyl)-picolinamide] | > 20 |
| O=C(NC1CCCCc2cccnc21)c1ccc(CNCc2ccccn2)cc1 (centres unmarked) [Example 82, N-(6,7,8,9-tetrahydro-5H-cyclohepta[b]pyridin-9-yl)-4-[[(2-pyridinylmethyl)amino]methyl]benzamide] | > 20 |

System: HIV-1 NL4.3 or IIIB
Assay: Inhibition of HIV-1 (NL4.3 or IIIB) replication in MT-4 cells (MTT)
Format: cell-based
Details: Human immunodeficiency virus 1, IIIB, MT4, read-out: EC50, inhibition of HIV-1 NL4.3 or IIIB replication
Procedure: Compounds were tested for their ability to inhibit HIV-1 replication in MT-4 cells or PBMC's (peripheral blood mononucleocytes) using published procedures (for example, see: Labrosse et al. J. Virol. 1998, 6381-6388; Simmons et al. J. Virol. 1998, 8453-8457; Donzella et al. Nature Medicine 1998, 72-77; Schols et al. J. Exp. Med. 1997, 1383-1388; De Clercq et al. Antiviral Res. 1997, 147-156; and Bridger et al. U.S. patent application Ser. No. 09/111,895). In addition to the above references, experimental methods for performing anti-viral assays can also be found in: Bridger et al. J. Med. Chem. 1995, 38, 366-378; Bridger et al. J. Med. Chem. 1996, 39, 109-119; Bridger et al. U.S. Pat. No. 5,698,546; Bridger et al. U.S. Pat. No. 5,583,131; Bridger et al. U.S. Pat. No. 5,817,807; De Clercq et al. Antimicrob. Agents and Chemother. 1994, 38, 668-674.
1. The HIV-1 strains NL4.3 and IIIB are T-tropic strains that exclusively use CXCR4 as the co-receptor for entry into cells. MT-4 Cells express CXCR4 but not CCR5.
Inhibition of HIV-1 NL4.3 (or IIIB) replication assays were performed as previously described (Bridger et al. J. Med. Chem. 1999, 42, 3971-3981; De Clercq et al. Proc. Natl. Acad. Sci, 1992, 89, 5286-5290; De Clercq et al. Antimicrob. Agents Chemother. 1994, 38, 668-674; Bridger et al. J. Med. Chem. 1995, 38, 366-378). Anti-HIV activity and cytotoxicity measurements were carried out in parallel. They were based on the viability of MT-4 cells that had been infected with HIV in the presence of various concentrations of the test compounds. After the MT-4 cells were allowed to proliferate for 5 days, the number of viable cells was quantified by a tetrazolium-based calorimetric 3-(4,5-dimethylthiazol-2-yl)-2,5-diphenyltetrazolium bromide (MTT) procedure in 96-well microtrays. In all of these assays, viral input (viral multiplicity of infection, MOI) was 0.01, or 100 times the 50% cell culture infective dose (CCID50). The EC50 was defined as the concentration required to protect 50% of the virus-infected cells against viral cytopathicity.

| Compound | EC50 [µg/mL] |
| --- | --- |
| c1ccc(CNCc2ccc(CN(Cc3ncc[nH]3)C3CCCc4cccnc43)cc2)nc1 (centres unmarked) [Example 15, N-(2-pyridinylmethyl)-N′-(1H-imidazol-2-ylmethyl)-N′-(5,6,7,8-tetrahydro-8-quinolinyl)-1,4-benzenedimethanamine] | < 20 |

Same assay, conditions: Human immunodeficiency virus 1, IIIB, MT4, read-out: EC50, inhibition of HIV-1 NLA.3 or IIIB replication

| Compound | pEC50 |
| --- | --- |
| Oc1cccc2ccc(CN(Cc3ccc(CNCc4ccccn4)cc3)C3CCCCc4cccnc43)nc12 (centres unmarked) [Example 157, N-[(8-hydroxy)-2-quinolylmethyl]-N′-(2-pyridinylmethyl)-N-(6,7,8,9-tetrahydro-5H-cyclohepta[b]pyridin-9-yl)-1,4-benzenedimethanamine] | > 4.70 |
| c1ccc(CNCc2ccc(CN(Cc3ccc4ccccc4n3)C3CCCCc4cccnc43)cc2)nc1 (centres unmarked) [Example 158, N-(2-quinolylmethyl)-N′-(2-pyridinylmethyl)-N-(6,7,8,9-tetrahydro-5H-cyclohepta[b]pyridin-9-yl)-1,4-benzenedimethanamine] | > 4.70 |
